Experimental data from patent publication US20110009435A1, “HETERO BICYCLIC CARBOXAMIDE DERIVATIVES AND THEIR PHARMACEUTICAL USE AND COMPOSITIONS” (Pfizer, Inc., priority 2007, published 2011).

What was measured:
[1] = target: T1, catalytic domain of human recombinant MMP-3 (Homo sapiens, UniProt P08254); assay: In vitro MMP inhibition assay, MMP-3 catalytic domain (fluorogenic peptide substrate cleavage, Ki); format: biochemical; conditions: human MMP-3, catalytic domain (CD); read-out: hMMP Ki 03/CD
T1 construct: made in house
In short: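 The MMP-3 catalytic domain was expressed in E. coli and refolded with zinc. It was preincubated with inhibitor for 1 hr at room temperature in MES buffer pH 6.0 with 1% DMSO, then 4 μM Mca/Dnp fluorogenic peptide was added (ex 330/em 420 nm). Ki came from Morrison-equation fits of rates, with substrate at or below Km and no substrate correction.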

Human recombinant MMP-2 = target: T2, Human recombinant MMP-2 (Homo sapiens, UniProt P08253); assay: In vitro MMP inhibition assay, MMP-2 (fluorogenic peptide substrate cleavage, Ki); format: biochemical; conditions: human MMP-2, full length (FL); read-out: hMMP Ki 02/FL
T2 construct: made in house; host or cells: MMP-2-transfected p2AHT2 cells
T2 sequence (P08253 110-660): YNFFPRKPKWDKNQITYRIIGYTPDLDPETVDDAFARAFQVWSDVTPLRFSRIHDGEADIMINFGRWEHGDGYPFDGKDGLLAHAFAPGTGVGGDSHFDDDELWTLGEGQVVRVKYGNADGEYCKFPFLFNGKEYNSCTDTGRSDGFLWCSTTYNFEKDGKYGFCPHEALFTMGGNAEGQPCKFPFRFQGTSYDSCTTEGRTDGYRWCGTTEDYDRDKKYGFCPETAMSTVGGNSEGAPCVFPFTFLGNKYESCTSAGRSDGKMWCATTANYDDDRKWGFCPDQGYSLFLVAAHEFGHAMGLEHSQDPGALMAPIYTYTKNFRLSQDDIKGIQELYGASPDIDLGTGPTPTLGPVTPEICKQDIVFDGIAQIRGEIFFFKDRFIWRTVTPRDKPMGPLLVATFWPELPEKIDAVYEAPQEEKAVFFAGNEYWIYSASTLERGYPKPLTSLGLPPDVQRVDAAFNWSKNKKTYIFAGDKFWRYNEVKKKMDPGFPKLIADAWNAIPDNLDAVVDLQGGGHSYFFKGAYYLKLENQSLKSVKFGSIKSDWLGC
Procedure: Matrix Metalloproteinase inhibitor compounds were analyzed in in vitro MMP Inhibition assays to determine their ability to inhibit the MMP cleavage of peptide substrates. Inhibition constants (Ki) were calculated from the assayed compound-MMP interactions.
Human recombinant MMP-1, MMP-2, MMP-3, MMP-7, MMP-9, MMP-12, MMP-13, MMP-14 and MMP-15 were used in these assays. The enzymes are prepared following known laboratory procedures. Protocols for the preparation and use of these enzymes are available in the scientific literature. See, e.g., Enzyme Nomenclature (Academic Press, San Diego, Calif., 1992) and the citations therein. See also Frije et al., J. Biol. Chem., 26(24), 16766-73 (1994).
The MMP-1 proenzyme may be purified from spent media of MMP-1-transfected HT-1080 cells and the protein purified on a zinc chelating column. The MMP-2 proenzyme may be purified by gelatin Sepharose chromatography from MMP-2-transfected p2AHT2 cells. […]
The inhibitors are analyzed using a single low enzyme concentration with a single substrate concentration fixed at or below the Km. […] Apparent inhibitory constants are determined by non-linear regression of reaction velocity as a function of inhibitor and enzyme concentration using Morrison's equation, as described by Kuzmic, Anal. Biochem. 286, 45-50 (2000). […]

T1 sequence (P08254 100-272 limits assumed): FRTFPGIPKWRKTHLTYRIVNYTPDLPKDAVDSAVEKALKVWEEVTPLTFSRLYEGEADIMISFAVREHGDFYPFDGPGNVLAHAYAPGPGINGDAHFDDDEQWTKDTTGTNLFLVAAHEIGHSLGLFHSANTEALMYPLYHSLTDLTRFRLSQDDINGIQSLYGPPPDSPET

Ki [1]: 1.57 µM
Ki (Human recombinant MMP-2): 5.65 µM
SMILES: COc1cccc(CNC(=O)c2nc3ccc(F)c(OCCC4CCN(C(=O)CO)CC4)c3c(=O)[nH]2)c1 [Example 34, 6-fluoro-5-[2-(1-glycoloylpiperidin-4-yl)ethoxy]-N-(3-methoxybenzyl)-4-oxo-3,4-dihydroquinazoline-2-carboxamide]
